Test results as given in ChEMBL document CHEMBL1201862, “PubChem BioAssay data set” (2004).
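Interpolation was linear, between the two tested concentrations surrounding the appropriate level; five concentrations were tested over 48 hours in 96-well plates. The concentration for 50% growth inhibition is given as GI50.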 Active and inactive are the calls of the source. No stated cut-off is given here; in the data, active = GI50 up to about 1.1 µM and inactive = higher.

Columns and labels:
Assay in all cases: NCI anticancer screen, dose series, 48 h
786-0 = test system: 786-0
A549 = test system: A549
ACHN = test system: ACHN
CAKI-1 = test system: CAKI-1
CCRF-CEM = test system: CCRF-CEM
COLO 205 = test system: COLO 205
DLD-1 = test system: DLD-1
DMS-114 = test system: DMS-114
DMS-273 = test system: DMS-273
EKVX = test system: EKVX
HCC 2998 = test system: HCC 2998
HCT-116 = test system: HCT-116
HCT-15 = test system: HCT-15
HL-60 = test system: HL-60
HOP-62 = test system: HOP-62
HOP-92 = test system: HOP-92
IGROV-1 = test system: IGROV-1
K562 = test system: K562
KM-20L2 = test system: KM-20L2
KM12 = test system: KM12
LOX IMVI = test system: LOX IMVI
LXFL 529 = test system: LXFL 529
M14 = test system: M14
M19-MEL = test system: M19-MEL
MOLT-4 = test system: MOLT-4
Malme-3M = test system: Malme-3M
NCI-H23 = test system: NCI-H23
NCI-H460 = test system: NCI-H460
NCI-H522 = test system: NCI-H522
OVCAR-3 = test system: OVCAR-3
OVCAR-4 = test system: OVCAR-4
OVCAR-5 = test system: OVCAR-5
OVCAR-8 = test system: OVCAR-8
RPMI-8226 = test system: RPMI-8226
SF-268 = test system: SF-268
SF-539 = test system: SF-539
SK-MEL-28 = test system: SK-MEL-28
SK-MEL-2 = test system: SK-MEL-2
SK-MEL-5 = test system: SK-MEL-5
SK-OV-3 = test system: SK-OV-3
SN12C = test system: SN12C
SNB-19 = test system: SNB-19
SNB-75 = test system: SNB-75
SNB-78 = test system: SNB-78
SR = test system: SR
SW-620 = test system: SW-620
TK-10 = test system: TK-10
U-251 = test system: U-251
UACC-257 = test system: UACC-257
UACC-62 = test system: UACC-62
UO-31 = test system: UO-31
XF498 = test system: XF498
BT-549 = test system: BT-549
DU-145 = test system: DU-145
HOP-18 = test system: HOP-18
HT-29 = test system: HT-29
Hs-578T = test system: Hs-578T
MDA-MB-231 = test system: MDA-MB-231
MDA-MB-435 = test system: MDA-MB-435
MDA-N = test system: MDA-N
NCI-H226 = test system: NCI-H226
PC-3 = test system: PC-3
RXF 393 = test system: RXF 393
SF-295 = test system: SF-295
T47D = test system: T47D

In the case of `Cc1ccc(S(=O)(=O)c2c(N)c3nccn3c3nc4ccccc4nc23)cc1`, the GI50 (786-0) is reported as 49000 nM (inactive), the GI50 (A549) is reported as > 100000 nM (inactive) and the GI50 (ACHN) is reported as 79800 nM (inactive). The GI50 (CAKI-1) was > 100000 nM (inactive), the GI50 (CCRF-CEM) was > 100000 nM (inactive) and the GI50 (COLO 205) was > 100000 nM (inactive). The GI50 (DLD-1) was > 100000 nM (inactive), the GI50 (DMS-114) was > 100000 nM (inactive) and the GI50 (DMS-273) was 81100 nM (inactive). The GI50 (EKVX) was > 100000 nM (inactive), the GI50 (HCC 2998) was > 100000 nM (inactive) and the GI50 (HCT-116) was > 100000 nM (inactive). The GI50 (HCT-15) was greater than 100000 nM, the GI50 (HL-60) was > 100000 nM (inactive) and the GI50 (HOP-62) was 81700 nM (inactive). For the same compound, the GI50 (HOP-92) was > 100000 nM (inactive), the GI50 (IGROV-1) was 13500 nM (inactive) and the GI50 (K562) was > 100000 nM (inactive). For the same compound, the GI50 (KM-20L2) was > 100000 nM (inactive), the GI50 (KM12) was > 100000 nM (inactive) and the GI50 (LOX IMVI) was > 100000 nM (inactive). The GI50 (LXFL 529) was > 100000 nM (inactive), the GI50 (M14) was > 100000 nM (inactive) and the GI50 (M19-MEL) was > 100000 nM (inactive). For the same compound, the GI50 (MOLT-4) was > 100000 nM (inactive), the GI50 (Malme-3M) was > 100000 nM (inactive) and the GI50 (NCI-H23) was > 100000 nM (inactive). The GI50 (NCI-H460) was > 100000 nM (inactive), the GI50 (NCI-H522) was > 100000 nM (inactive) and the GI50 (OVCAR-3) was > 100000 nM (inactive). The GI50 (OVCAR-4) was > 100000 nM (inactive), the GI50 (OVCAR-5) was > 100000 nM (inactive) and the GI50 (OVCAR-8) was > 100000 nM (inactive). For the same compound, the GI50 (RPMI-8226) was > 100000 nM (inactive), the GI50 (SF-268) was > 100000 nM (inactive) and the GI50 (SF-539) was > 100000 nM (inactive). The GI50 (SK-MEL-28) was > 100000 nM (inactive), the GI50 (SK-MEL-2) was > 100000 nM (inactive) and the GI50 (SK-MEL-5) was > 100000 nM (inactive). For the same compound, the GI50 (SK-OV-3) was > 100000 nM (inactive), the GI50 (SN12C) was > 100000 nM (inactive) and the GI50 (SNB-19) was > 100000 nM (inactive). For the same compound, the GI50 (SNB-75) was 7850 nM (inactive), the GI50 (SNB-78) was 53500 nM (inactive) and the GI50 (SR) was > 100000 nM (inactive). For the same compound, the GI50 (SW-620) was > 100000 nM (inactive), the GI50 (TK-10) was 69800 nM (inactive) and the GI50 (U-251) was > 100000 nM (inactive). For the same compound, the GI50 (UACC-257) was > 100000 nM (inactive), the GI50 (UACC-62) was 20400 nM (inactive) and the GI50 (UO-31) was > 100000 nM (inactive). For the same compound, the GI50 (XF498) was 41800 nM (inactive).

With `CC[C@@]1(O)C[C@H](OC2CC(N(C)C)C(OC3CC(O)C(OC4CCC(=O)C(C)O4)C(C)O3)C(C)O2)c2c(cc3c(c2O)C(=O)c2c(O)ccc(O)c2C3=O)[C@H]1C(=O)OC` (stereo not given in full) the GI50 (786-0) was < 10 nM (active), the GI50 (A549) was 0.067 nM (active) and the GI50 (ACHN) was 0.0536 nM (active). For the same compound, the GI50 (BT-549) was 1.13 nM (active), the GI50 (CAKI-1) was < 0.01 nM (active) and the GI50 (CCRF-CEM) was 0.0838 nM (active). For the same compound, the GI50 (COLO 205) was 0.0755 nM (active), the GI50 (DLD-1) was < 0.01 nM (active) and the GI50 (DMS-273) was < 0.01 nM (active). For the same compound, the GI50 (DU-145) was 1.73 nM (active), the GI50 (EKVX) was 4.92 nM (active) and the GI50 (HCT-116) was 0.0232 nM (active). The GI50 (HCT-15) was 0.0975 nM, the GI50 (HL-60) was 0.0656 nM (active) and the GI50 (HOP-18) was 12.8 nM (active). For the same compound, the GI50 (HOP-62) was 0.0875 nM (active), the GI50 (HOP-92) was 0.8 nM (active) and the GI50 (HT-29) was 0.0483 nM (active). The GI50 (Hs-578T) was 3.66 nM (active), the GI50 (IGROV-1) was 0.0535 nM (active) and the GI50 (K562) was 0.0883 nM (active). For the same compound, the GI50 (KM12) was 0.0877 nM (active), the GI50 (LOX IMVI) was 0.02 nM (active) and the GI50 (M14) was 0.438 nM (active). The GI50 (MDA-MB-231) was 2.88 nM (active), the GI50 (MDA-MB-435) was 0.929 nM (active) and the GI50 (MDA-N) was 0.427 nM (active). The GI50 (MOLT-4) was 0.0355 nM (active), the GI50 (Malme-3M) was 0.0906 nM (active) and the GI50 (NCI-H226) was 0.0583 nM (active). For the same compound, the GI50 (NCI-H23) was 1.57 nM (active), the GI50 (NCI-H460) was 0.0233 nM (active) and the GI50 (NCI-H522) was 0.0528 nM (active). The GI50 (OVCAR-3) was 0.233 nM (active), the GI50 (OVCAR-4) was 0.0106 nM (active) and the GI50 (OVCAR-5) was 0.365 nM (active). For the same compound, the GI50 (OVCAR-8) was 2.33 nM (active), the GI50 (PC-3) was 0.395 nM (active) and the GI50 (RPMI-8226) was 0.0783 nM (active). For the same compound, the GI50 (RXF 393) was 0.344 nM (active), the GI50 (SF-268) was 0.132 nM (active) and the GI50 (SF-295) was 0.0681 nM (active). For the same compound, the GI50 (SF-539) was 0.114 nM (active), the GI50 (SK-MEL-28) was 0.343 nM (active) and the GI50 (SK-MEL-2) was 0.0787 nM (active). The GI50 (SK-MEL-5) was 0.535 nM (active), the GI50 (SK-OV-3) was 0.404 nM (active) and the GI50 (SN12C) was 0.0418 nM (active). For the same compound, the GI50 (SNB-19) was 0.0551 nM (active), the GI50 (SNB-75) was 0.105 nM (active) and the GI50 (SR) was 0.101 nM (active). For the same compound, the GI50 (SW-620) was 0.052 nM (active), the GI50 (T47D) was 0.773 nM (active) and the GI50 (TK-10) was 1.52 nM (active). For the same compound, the GI50 (U-251) was 0.0635 nM (active), the GI50 (UACC-257) was 2.02 nM (active) and the GI50 (UACC-62) was 3.41 nM (active). The GI50 (UO-31) was 0.0422 nM (active).
